According to US20230104690A1, “MATRIX METALLOPROTEINASE INHIBITORS (MMPIs)” (Brandon University, priority 2020, published 2023):
Entries after “also recorded” stand apart in the source; their conditions may differ.

Columns and labels:
[1] = molecular target: T1, MMP3 (Rattus norvegicus, UniProt P03957); assay: NFF-3 fluorescence assay in C6-13 (C6-Cx43) glioma conditioned media; type: biochemical; conditions: 50 μM and 100 μM, over six hours, relative to untreated controls
T1 construct: endogenous in cells; host or cells: C6-13 (C6 glioma clone stably expressing Cx43), conditioned serum-free medium
T1 sequence (P03957 98-475): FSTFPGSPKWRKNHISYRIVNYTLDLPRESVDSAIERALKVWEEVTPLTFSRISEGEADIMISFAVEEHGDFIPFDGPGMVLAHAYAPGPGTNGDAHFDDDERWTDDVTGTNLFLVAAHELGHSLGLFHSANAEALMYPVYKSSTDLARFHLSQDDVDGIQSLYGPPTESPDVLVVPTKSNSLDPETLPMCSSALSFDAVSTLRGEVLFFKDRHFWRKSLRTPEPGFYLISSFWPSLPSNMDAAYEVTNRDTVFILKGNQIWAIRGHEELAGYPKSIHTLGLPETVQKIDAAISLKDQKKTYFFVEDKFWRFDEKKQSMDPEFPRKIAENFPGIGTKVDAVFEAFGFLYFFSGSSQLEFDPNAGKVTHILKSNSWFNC
Description: Glioma Cell Culture. […] Anal Bioanal Chem 2010, 398 (1), 477-87). […] Zymography. […] SDS-PAGE/Western Blotting. Conditioned media was collected and chilled on ice. […] Proteins were pelleted by centrifugation (12 minutes, 4800 g). Proteins were suspended in SDS-PAGE loading buffer. […] NFF-3 Fluorescence Assay. […] After conditioning, the media was collected. Each experimental condition had its own control condition. […] The experiment was conducted at 37° C. […] The docking of MMP Inhibitors.
The synthesis of the MMP Inhibitors and NFF3 analysis. The leucine-tryptophan (Leu-Trp) backbone, AP-1, and AP-2 were synthesized. All synthesized compounds were analyzed by mass spectrometry (FIG. 3). The NFF-3 assay was used to determine the biological inhibition of MMP-3 activity for ilomastat and synthesized compounds, Leu-Trp, and AP-1 relative to untreated controls. […] Linear responses of MMP3 activity was robustly measured from about 30 to about 300 minutes. All compounds were tested at a concentration of 50 μM and 100 μM, and compared to determine MMP3 suppression. From FIG. 6, concentration dependent inhibition was observed.

[2] = molecular target: T1, MMP3; assay: Gelatin zymography of C6-13 conditioned media; type: cell-based; conditions: ilomastat 0-100 uM, 0.1% gelatin
Excerpt: (§1) Glioma Cell Culture. The C6 glioma line (American Type Culture Collection, ATCC) maintains many characteristics of GBM including cancer stem cell behavior ability to generate GBMs in rats upon injection in the brain (Grobben, B.; De Deyn, P. P.; Slegers, H., Rat C6 glioma as experimental model system for the study of glioblastoma growth and invasion. Cell Tissue Res 2002, 310 (3), 257-70; Zheng, X.; Shen, G.; Yang, X.; Liu, W., Most C6 cells are cancer stem cells: evidence from clonal and population analyses. Cancer Res 2007, 67 (8), 3691-7; and Beljebbar, A.; Dukic, S.; Amharref, N.; Manfait, M., Ex vivo and in vivo diagnosis of C6 glioblastoma development by Raman spectroscopy coupled to a microprobe. Anal Bioanal Chem 2010, 398 (1), 477-87). […] Cell Mol Neurobiol 1992, 12 (2), 163-75.) Glioma cells were maintained at 37° C., 95% air and 5% CO2 in a humidified incubator. Cells were cultivated in high glucose DMEM (4.0 g/L, ThermoFisher Scientific) containing L-glutamine (4.0 mM), antibiotics (penicillin, 100 IU/mL; streptomycin, 100 μg/mL) and 10% fetal bovine serum (FBS; Gibco). For collection of conditioned media, cells were plated in 6-well plate (200,000 cells/well) and grown to 80% confluency over the course of 3 days. […] Protein concentration was determined by BCA assay and samples suspended in SDS loading buffer (no DTT and without boiling). […]

[3] = test system: C6 glioma cells; conditions: ≤100 uM, propidium iodide stain, data not shown
Excerpt: as §1

| Compound | Inhibition of MMP-3 activity (NFF-3 fluorescence) [1] | Loss of MMP3 activity (zymography) [2] | Cell death [3] [%] |
| --- | --- | --- | --- |
| CC(C)C[C@H](N)C(=O)N[C@@H](Cc1c[nH]c2ccccc12)C(=O)O [Leu-Trp] | can act as a competitive inhibitor | – | – |
| CNC(=O)[C@H](Cc1c[nH]c2ccccc12)NC(=O)[C@@H](CC(=O)NO)CC(C)C [Ilomastat] | perform better than Leu-Trp at inhibiting MMP-3 | concentration-dependent inhibition of secreted MMP3; also recorded: dose-dependent loss of MMP3 activity | < 1 |
